From patent US20100074920A1 (priority 2006, published 2010)

System: serum antibodies of test subjects Serum 1B-8B
Settings: sera S1B-S8B; streptavidin immobilized peptide

## Biotin-aminocaproyl-SRPRVRNIP [Peptide 2B]
  binding of serum antibodies (immune response), absorbance at 450 nm: especially effective in binding with certain antibodies
